{
  "source": "patent US20070042339A1",
  "about": "“Preservation of biomaterials with transported preservation agents” (priority 2003, published 2007)",
  "key": {"[1]": {"tested_on": "lymphocytes, fibroblasts and hepatocytes", "format": "cell-based, murine; rat", "experimental": "The conventional permeable cryoprotectants such as DMSO and glycerol benefit cells for preservation, but they are known to be toxic to the cells at the same time. […] The toxicity of various glucose compounds, D-glucose and DMSO was examined after loading. Cells were incubated with glucose-free DMEM supplemented with 0.2 M 3OMG, with 0.2 M 2DG or 1.4 M DMSO for 60 min at 37° C. After loading, calcein and ethidium homodimer were added to cell suspensions to assess viability. Cells were run through Beckton-Dickinson FACSCalibur flowcytometer to take emission reading at 530 nm and 630 nm of 5000 particles. High green and low red fluorescence (calcein positive) were scored as live, whereas high red and low green (ethidium positive) were scored dead."}, "[2]": {"tested_on": "lymphocytes, fibroblasts and hepatocytes", "test": "MTT assay of metabolic activity after glucose loading (Example 1)", "format": "cell-based, murine; rat", "conditions": "1 hr at 37° C.", "experimental": "However, it was considered to be possible that high accumulation of glucose compounds change metabolic activity of the cells. Therefore, metabolic activity after sugar loading was measured with the MTT assay. MTT assay is a colorimetric assay based on the activity of mitochondrial dehydrogenase activity. […] Cells were seeded on 96-well culture plates with 100 μL defined medium supplemented with various glucose compounds according to the experimental design for 1 hr at 37° C. At the end of the treatment period, 10 μL of MT solution (5 mg/mL) were added and incubated for 2 hrs at 37° C. At this time, 100 μL of detergent solution were added to the wells and after 24 hrs of incubation at 25° C., and the absorption value at 570 nm was measured in a microtiter reader."}, "[3]": {"tested_on": "murine B lymphocytes, murine fibroblasts, and rat primary hepatocytes", "test": "Cryopreservation with non-metabolizable glucose compounds, post-thaw trypan blue viability (Example 1)", "format": "cell-based", "conditions": "0.2 M loading 60 min", "experimental": "At first, these compounds were tested on cryopreservation, which is most common protocol for preservation of biomaterials. Glucose compounds are thought to prevent damaging effects of protein and lipid-membranes during storage. In addition, glucose compounds have a high glass transition temperature and cause the formation of stable glasses during storage. Cells were incubated with glucose-free DMEM or glucose-free DMEM with 0.2 M 2DG, or 0.2 M 3OMG for 60 min at 37° C. […] Samples were stored for up to 14 days. Following storage, samples were rapidly thawed in 37° C. H2O for 80 sec with gentle agitation. […] Samples were then centrifuged, supernatant decanted, and cells were resuspended in culture medium."}, "[4]": {"tested_on": "hepatocytes", "format": "cell-based", "conditions": "rat, 60 min, 200 mM", "experimental": "HTS without sugar supplement was used for control samples. […] Following storage, samples were rapidly thawed in 37° C. H2O for 2 min with gentle agitation."}, "[5]": {"tested_on": "hepatocytes", "format": "cell-based, rat", "text": "The sandwich culture is a long-term culture technique that results in stable and differentiated hepatocytes. We evaluated albumin synthesis, urea production, and cytochrome P450 (CYP) activity of frozen-thawed hepatocytes as markers of synthetic, metabolic, and detoxification abilities of hepatocytes. Albumin production of 3OMG-loaded and cryopreserved hepatocytes stabilized following 7 days in culture (FIG. 11A). Daily average of albumin production (day 7-13) from 3OMG-loaded hepatocytes was approximately 60% of non-frozen control (1.29±0.19 μg and 2.14±0.26 μg, respectively) with statistically significant difference (p=0.014). […] The CYP activity was measured on day 3 and 7 after thawing."}},
  "note": "Where two headings read alike, the source gives them in different places.",
  "data": [
    {"smiles": "C[S+](C)[O-]", "note": "[DMSO, dimethylsulfoxide]", "values": [
      {"measurement": "toxicity to the cells (percentage of dead cells after incubation)", "setting": "[1]", "value": "significant toxicity"}
    ]},
    {"smiles": "OC[C@H]1OC(O)C[C@@H](O)[C@@H]1O", "note": "(mixture of isomers) [2DG, 2-deoxy-D-glucose]", "values": [
      {"measurement": "metabolic activity (MTT) after loading, lymphocytes and fibroblasts", "setting": "[2]; lymphocytes and fibroblasts", "value": "significant loss of metabolic activity"},
      {"measurement": "metabolic activity (MTT) after loading, hepatocytes", "setting": "[2]; primary isolated hepatocytes", "value": "not down-regulated"},
      {"measurement": "viability after cryopreservation compared to non-glucose control", "setting": "[3]", "value": "significantly high viability"},
      {"measurement": "post-thaw viability, percent of non-frozen samples", "setting": "[4]", "value": 15, "unit": "%"}
    ]},
    {"smiles": "OC[C@H]1O[C@@](CO)(O[C@H]2O[C@H](CO)[C@@H](O)[C@H](O)[C@H]2O)[C@@H](O)[C@@H]1O", "note": "[sucrose]", "values": [
      {"measurement": "hepatospecific functions (albumin, urea, CYP) in long-term culture after cryopreservation", "setting": "[5]; collagen sandwich culture, 14 days", "value": "completely lost these functions in 5 days"}
    ]},
    {"smiles": "O=C[C@H](O)[C@@H](O)[C@H](O)[C@H](O)CO", "note": "[D-glucose]", "values": [
      {"measurement": "post-thaw viability, percent of non-frozen samples", "setting": "[4]", "value": "< 10", "unit": "%"},
      {"measurement": "hepatospecific functions (albumin, urea, CYP) in long-term culture after cryopreservation", "setting": "[5]", "value": "completely lost these functions in 5 days"}
    ]}
  ]
}
